From ChEMBL document CHEMBL1201861, “Genomics of Drug Sensitity in Cancer screening data, Wellcome Trust Sanger Institute”

Key:
Test in all cases: cells
Conditions in all cases: Homo sapiens
CGTH-W-1 = assay type: functional, cell-based
Description: SANGER: Inhibition of human CGTH-W-1 cell growth in a cell viability assay.

COLO-800 = assay type: functional, cell-based
Description: SANGER: Inhibition of human COLO-800 cell growth in a cell viability assay.

MZ1-PC = assay type: functional, cell-based
Description: SANGER: Inhibition of human MZ1-PC cell growth in a cell viability assay.

VA-ES-BJ = assay type: functional, cell-based
Description: SANGER: Inhibition of human VA-ES-BJ cell growth in a cell viability assay.

KNS-81-FD = assay type: functional, cell-based
Description: SANGER: Inhibition of human KNS-81-FD cell growth in a cell viability assay.

Calu-6 = assay type: functional, cell-based
Description: SANGER: Inhibition of human Calu-6 cell growth in a cell viability assay.

SBC-1 = assay type: functional, cell-based
Description: SANGER: Inhibition of human SBC-1 cell growth in a cell viability assay.

SK-N-DZ = assay type: functional, cell-based
Description: SANGER: Inhibition of human SK-N-DZ cell growth in a cell viability assay.

SK-PN-DW = assay type: functional, cell-based
Description: SANGER: Inhibition of human SK-PN-DW cell growth in a cell viability assay.

LOX IMVI = assay type: functional, cell-based
Description: SANGER: Inhibition of human LOXIMVI cell growth in a cell viability assay.

NCI-H1838 = assay type: functional, cell-based
Description: SANGER: Inhibition of human NCI-H1838 cell growth in a cell viability assay.

KALS-1 = assay type: functional, cell-based
Description: SANGER: Inhibition of human KALS-1 cell growth in a cell viability assay.

EW-3 = assay type: functional, cell-based
Description: SANGER: Inhibition of human EW-3 cell growth in a cell viability assay.

KINGS-1 = assay type: functional, cell-based
Description: SANGER: Inhibition of human KINGS-1 cell growth in a cell viability assay.

TGBC1TKB = assay type: functional, cell-based
Description: SANGER: Inhibition of human TGBC1TKB cell growth in a cell viability assay.

KGN = assay type: functional, cell-based
Description: SANGER: Inhibition of human KGN cell growth in a cell viability assay.

TE-9 = assay type: functional, cell-based
Description: SANGER: Inhibition of human TE-9 cell growth in a cell viability assay.

NCI-H1155 = assay type: functional, cell-based
Description: SANGER: Inhibition of human NCI-H1155 cell growth in a cell viability assay.

RKO = assay type: functional, cell-based
Description: SANGER: Inhibition of human RKO cell growth in a cell viability assay.

no-11 = assay type: functional, cell-based
Description: SANGER: Inhibition of human no-11 cell growth in a cell viability assay.

TE-8 = assay type: functional, cell-based
Description: SANGER: Inhibition of human TE-8 cell growth in a cell viability assay.

EKVX = assay type: functional, cell-based
Description: SANGER: Inhibition of human EKVX cell growth in a cell viability assay.

NCI-H1648 = assay type: functional, cell-based
Description: SANGER: Inhibition of human NCI-H1648 cell growth in a cell viability assay.

NCI-H23 = assay type: functional, cell-based
Description: SANGER: Inhibition of human NCI-H23 cell growth in a cell viability assay.

A101D = assay type: functional, cell-based
Description: SANGER: Inhibition of human A101D cell growth in a cell viability assay.

EW-11 = assay type: functional, cell-based
Description: SANGER: Inhibition of human EW-11 cell growth in a cell viability assay.

SK-NEP-1 = assay type: functional, cell-based
Description: SANGER: Inhibition of human SK-NEP-1 cell growth in a cell viability assay.

K562 = assay type: functional, cell-based
Description: SANGER: Inhibition of human K-562 cell growth in a cell viability assay.

SH-4 = assay type: functional, cell-based
Description: SANGER: Inhibition of human SH-4 cell growth in a cell viability assay.

DEL = assay type: functional, cell-based
Description: SANGER: Inhibition of human DEL cell growth in a cell viability assay.

U-87 MG = assay type: functional, cell-based, U-87MG ATCC
Description: SANGER: Inhibition of human U-87-MG cell growth in a cell viability assay.

NEC8 = assay type: functional, cell-based
Description: SANGER: Inhibition of human NEC8 cell growth in a cell viability assay.

DB = assay type: functional, cell-based
Description: SANGER: Inhibition of human DB cell growth in a cell viability assay.

COLO-668 = assay type: functional, cell-based
Description: SANGER: Inhibition of human COLO-668 cell growth in a cell viability assay.

EW-16 = assay type: functional, cell-based
Description: SANGER: Inhibition of human EW-16 cell growth in a cell viability assay.

KARPAS-299 = assay type: functional, cell-based
Description: SANGER: Inhibition of human KARPAS-299 cell growth in a cell viability assay.

EW-24 = assay type: functional, cell-based
Description: SANGER: Inhibition of human EW-24 cell growth in a cell viability assay.

LB373-MEL-D = assay type: functional, cell-based
Description: SANGER: Inhibition of human LB373-MEL-D cell growth in a cell viability assay.

ML-2 = assay type: functional, cell-based
Description: SANGER: Inhibition of human ML-2 cell growth in a cell viability assay.

NCI-H1355 = assay type: functional, cell-based
Description: SANGER: Inhibition of human NCI-H1355 cell growth in a cell viability assay.

NCI-H226 = assay type: functional, cell-based
Description: SANGER: Inhibition of human NCI-H226 cell growth in a cell viability assay.

TE-5 = assay type: functional, cell-based
Description: SANGER: Inhibition of human TE-5 cell growth in a cell viability assay.

L-363 = assay type: functional, cell-based
Description: SANGER: Inhibition of human L-363 cell growth in a cell viability assay.

NB5 = assay type: functional, cell-based
Description: SANGER: Inhibition of human NB5 cell growth in a cell viability assay.

HT-144 = assay type: functional, cell-based
Description: SANGER: Inhibition of human HT-144 cell growth in a cell viability assay.

NCI-H1395 = assay type: functional, cell-based
Description: SANGER: Inhibition of human NCI-H1395 cell growth in a cell viability assay.

SF-126 = assay type: functional, cell-based
Description: SANGER: Inhibition of human SF126 cell growth in a cell viability assay.

TK-10 = assay type: functional, cell-based
Description: SANGER: Inhibition of human TK10 cell growth in a cell viability assay.

HC-1 = assay type: functional, cell-based
Description: SANGER: Inhibition of human HC-1 cell growth in a cell viability assay.

no-10 = assay type: functional, cell-based
Description: SANGER: Inhibition of human no-10 cell growth in a cell viability assay.

TE-12 = assay type: functional, cell-based
Description: SANGER: Inhibition of human TE-12 cell growth in a cell viability assay.

SW 962 = assay type: functional, cell-based
Description: SANGER: Inhibition of human SW962 cell growth in a cell viability assay.

NCI-H1650 = assay type: functional, cell-based
Description: SANGER: Inhibition of human NCI-H1650 cell growth in a cell viability assay.

GR-ST = assay type: functional, cell-based
Description: SANGER: Inhibition of human GR-ST cell growth in a cell viability assay.

NCI-H2126 = assay type: functional, cell-based
Description: SANGER: Inhibition of human NCI-H2126 cell growth in a cell viability assay.

MS-1 = assay type: functional, cell-based
Description: SANGER: Inhibition of human MS-1 cell growth in a cell viability assay.

MZ7-mel = assay type: functional, cell-based
Description: SANGER: Inhibition of human MZ7-mel cell growth in a cell viability assay.

NCI-H1092 = assay type: functional, cell-based
Description: SANGER: Inhibition of human NCI-H1092 cell growth in a cell viability assay.

HD-MY-Z = assay type: functional, cell-based
Description: SANGER: Inhibition of human HD-MY-Z cell growth in a cell viability assay.

LC-2-ad = assay type: functional, cell-based
Description: SANGER: Inhibition of human LC-2-ad cell growth in a cell viability assay.

EM-2 = assay type: functional, cell-based
Description: SANGER: Inhibition of human EM-2 cell growth in a cell viability assay.

RXF 393 = assay type: functional, cell-based
Description: SANGER: Inhibition of human RXF393 cell growth in a cell viability assay.

GOTO = assay type: functional, cell-based
Description: SANGER: Inhibition of human GOTO cell growth in a cell viability assay.

GAK = assay type: functional, cell-based
Description: SANGER: Inhibition of human GAK cell growth in a cell viability assay.

IA-LM = assay type: functional, cell-based
Description: SANGER: Inhibition of human IA-LM cell growth in a cell viability assay.

## Cc1ccc(NC(=O)c2cccc(C(C)(C)C#N)c2)cc1Nc1ccc2ncn(C)c(=O)c2c1
CGTH-W-1
  IC50: 0.121 µM
COLO-800
  IC50: > 4 µM
MZ1-PC
  IC50: 0.28 µM
VA-ES-BJ
  IC50: > 4 µM
KNS-81-FD
  IC50: > 4 µM
Calu-6
  IC50: 0.0515 µM
SBC-1
  IC50: > 4 µM
SK-N-DZ
  IC50: > 4 µM
SK-PN-DW
  IC50: > 4 µM
LOX IMVI
  IC50: > 4 µM
NCI-H1838
  IC50: > 4 µM
KALS-1
  IC50: > 4 µM
EW-3
  IC50: > 4 µM
KINGS-1
  IC50: > 4 µM
TGBC1TKB
  IC50: > 4 µM
KGN
  IC50: > 4 µM
TE-9
  IC50: > 4 µM
NCI-H1155
  IC50: > 4 µM
RKO
  IC50: 0.0377 µM
no-11
  IC50: > 4 µM
TE-8
  IC50: > 4 µM
EKVX
  IC50: > 4 µM
NCI-H1648
  IC50: 0.673 µM
NCI-H23
  IC50: > 4 µM
A101D
  IC50: 0.00582 µM
EW-11
  IC50: > 4 µM
SK-NEP-1
  IC50: 0.472 µM
K562
  IC50: 0.667 µM
SH-4
  IC50: < 0.0156 µM
DEL
  IC50: > 4 µM
U-87 MG
  IC50: > 4 µM
NEC8
  IC50: > 4 µM
DB
  IC50: > 4 µM
COLO-668
  IC50: > 4 µM
EW-16
  IC50: > 4 µM
KARPAS-299
  IC50: > 4 µM
EW-24
  IC50: 2.71 µM
LB373-MEL-D
  IC50: 1.66 µM
ML-2
  IC50: 0.369 µM
NCI-H1355
  IC50: > 4 µM
NCI-H226
  IC50: > 4 µM
TE-5
  IC50: > 4 µM
L-363
  IC50: > 4 µM
NB5
  IC50: 1.95 µM
HT-144
  IC50: 0.00661 µM
NCI-H1395
  IC50: > 4 µM
SF-126
  IC50: > 4 µM
TK-10
  IC50: > 4 µM
HC-1
  IC50: > 4 µM
no-10
  IC50: > 4 µM
TE-12
  IC50: 1.31 µM
SW 962
  IC50: > 4 µM
NCI-H1650
  IC50: > 4 µM
GR-ST
  IC50: > 4 µM
NCI-H2126
  IC50: > 4 µM
MS-1
  IC50: > 4 µM
MZ7-mel
  IC50: 0.117 µM
NCI-H1092
  IC50: > 4 µM
HD-MY-Z
  IC50: 2.94 µM
LC-2-ad
  IC50: > 4 µM
EM-2
  IC50: 0.196 µM
RXF 393
  IC50: > 4 µM
GOTO
  IC50: > 4 µM

## NC(=O)c1ncn([C@@H]2O[C@H](COP(=O)(O)O)[C@@H](O)[C@H]2O)c1N
CGTH-W-1
  IC50: > 2000 µM
COLO-800
  IC50: > 2000 µM
MZ1-PC
  IC50: > 2000 µM
VA-ES-BJ
  IC50: 819 µM
KNS-81-FD
  IC50: > 2000 µM
Calu-6
  IC50: 732 µM
SBC-1
  IC50: 1400 µM
SK-N-DZ
  IC50: 1020 µM
SK-PN-DW
  IC50: 741 µM
LOX IMVI
  IC50: 929 µM
NCI-H1838
  IC50: > 2000 µM
KALS-1
  IC50: 1160 µM
KINGS-1
  IC50: > 2000 µM
TGBC1TKB
  IC50: 814 µM
KGN
  IC50: 630 µM
TE-9
  IC50: > 2000 µM
NCI-H1155
  IC50: 800 µM
RKO
  IC50: 830 µM
no-11
  IC50: > 2000 µM
TE-8
  IC50: 828 µM
EKVX
  IC50: > 2000 µM
NCI-H1648
  IC50: > 2000 µM
NCI-H23
  IC50: > 2000 µM
A101D
  IC50: > 2000 µM
EW-11
  IC50: 1090 µM
SK-NEP-1
  IC50: 611 µM
K562
  IC50: > 2000 µM
SH-4
  IC50: > 2000 µM
GAK
  IC50: > 2000 µM
DEL
  IC50: 232 µM
U-87 MG
  IC50: > 2000 µM
NEC8
  IC50: > 2000 µM
DB
  IC50: 91.3 µM
COLO-668
  IC50: > 2000 µM
EW-16
  IC50: > 2000 µM
KARPAS-299
  IC50: > 2000 µM
EW-24
  IC50: > 2000 µM
LB373-MEL-D
  IC50: > 2000 µM
ML-2
  IC50: > 2000 µM
NCI-H1355
  IC50: > 2000 µM
NCI-H226
  IC50: > 2000 µM
TE-5
  IC50: > 2000 µM
L-363
  IC50: 179 µM
NB5
  IC50: > 2000 µM
HT-144
  IC50: > 2000 µM
NCI-H1395
  IC50: > 2000 µM
SF-126
  IC50: > 2000 µM
TK-10
  IC50: > 2000 µM
HC-1
  IC50: 1160 µM
no-10
  IC50: > 2000 µM
IA-LM
  IC50: 859 µM
TE-12
  IC50: > 2000 µM
SW 962
  IC50: > 2000 µM
NCI-H1650
  IC50: > 2000 µM
GR-ST
  IC50: 431 µM
NCI-H2126
  IC50: > 2000 µM
MS-1
  IC50: 425 µM
MZ7-mel
  IC50: 1770 µM
NCI-H1092
  IC50: 1220 µM
HD-MY-Z
  IC50: 1950 µM
LC-2-ad
  IC50: 1170 µM
EM-2
  IC50: 230 µM
RXF 393
  IC50: 710 µM
GOTO
  IC50: > 2000 µM

## CC[C@@]1(O)C(=O)OCc2c1cc1n(c2=O)Cc2cc3ccccc3nc2-1 [CAMPTOTHECIN]
CGTH-W-1
  IC50: 0.00327 µM
COLO-800
  IC50: 0.000428 µM
MZ1-PC
  IC50: 0.0203 µM
VA-ES-BJ
  IC50: 0.00347 µM
KNS-81-FD
  IC50: 0.0194 µM
SBC-1
  IC50: 0.0278 µM
SK-N-DZ
  IC50: 0.0217 µM
SK-PN-DW
  IC50: 0.00116 µM
LOX IMVI
  IC50: 0.00372 µM
KALS-1
  IC50: 0.0699 µM
EW-3
  IC50: 0.000319 µM
KGN
  IC50: 0.0106 µM
TE-9
  IC50: 0.0237 µM
NCI-H1155
  IC50: 0.00119 µM
RKO
  IC50: 0.00423 µM
TE-8
  IC50: 0.00417 µM
NCI-H1648
  IC50: 0.0381 µM
NCI-H23
  IC50: 0.0407 µM
EW-11
  IC50: 0.00266 µM
SK-NEP-1
  IC50: 0.00123 µM
K562
  IC50: > 0.1 µM
SH-4
  IC50: 0.0598 µM
DEL
  IC50: 0.000816 µM
U-87 MG
  IC50: 0.00663 µM
NEC8
  IC50: 0.00311 µM
DB
  IC50: 0.00116 µM
COLO-668
  IC50: 0.0223 µM
EW-16
  IC50: 0.000121 µM
KARPAS-299
  IC50: > 0.1 µM
EW-24
  IC50: 0.00403 µM
LB373-MEL-D
  IC50: 0.0912 µM
ML-2
  IC50: 0.00216 µM
NCI-H1355
  IC50: 0.0661 µM
NCI-H226
  IC50: 0.0225 µM
TE-5
  IC50: 0.00738 µM
L-363
  IC50: 0.00187 µM
NB5
  IC50: 0.00192 µM
HT-144
  IC50: 0.0179 µM
SF-126
  IC50: 0.00284 µM
TK-10
  IC50: 0.0558 µM
HC-1
  IC50: 0.00334 µM
IA-LM
  IC50: 0.012 µM
SW 962
  IC50: 0.0205 µM
GR-ST
  IC50: 0.000701 µM
MS-1
  IC50: 0.00277 µM
MZ7-mel
  IC50: 0.00861 µM
NCI-H1092
  IC50: 0.0432 µM
HD-MY-Z
  IC50: 0.00163 µM
LC-2-ad
  IC50: 0.00281 µM
EM-2
  IC50: 0.00408 µM
RXF 393
  IC50: 0.00466 µM
GOTO
  IC50: 0.000706 µM
